# Literature values as cited in patent US12247090B2, “Enzyme-mediated free radical initiating systems for the production of hydrogels and controlled radical polymerization processes” (Duke University, priority 2021, dated 2025).
# Test system: rat
# Conditions: in vivo, po
structure (smiles),measurement,value
"CC(=O)CC(C)=O [ACAC, acetylacetone]",LD50,55 mg/kg
